The values below come from PMC8362065, “Easily Available, Amphiphilic Diiron Cyclopentadienyl Complexes Exhibit in Vitro Anticancer Activity in 2D and 3D Human Cancer Cells through Redox Modulation Triggered by CO Release” (Chemistry (Weinheim an Der Bergstrasse, Germany), 2021).

Data set [1] can be described thus: Solubility pattern of the isolated compound (qualitative). Format: physicochemical. The note with it: isolated solid.
The subject of data set [2] is Embryonic kidney HEK293 cells. In words: MTT assay, noncancerous cell line. Format: cell-based, human. The note with it: 72 h; for IC50: HEK293 noncancerous cells, MTT; for SI (selectivity index): IC50 in noncancerous HEK293 cells / average IC50 in cancer cells. As for the experimental part:
As one of the main drawbacks of chemotherapeutics is the toxic effect toward noncancerous cells, we measured the cytotoxicity of tested complexes against a noncancerous cell line (HEK293) and calculated the selectivity index (SI, defined as the ratio between the IC50 value in noncancerous cells and the corresponding average IC50 value related to cancer cells; Table 5).
Compounds [2B]BF4, [2C]CF3SO3, [2D]CF3SO3 and [3F]CF3SO3 were dissolved in water while the other compounds were dissolved in the minimum DMSO amount prior to cell culture testing. A calculated amount of the stock drug DMSO solution was added to the cell culture media to reach a final maximum DMSO concentration of 0.5 %, which had no effects on cell viability.
Cell cultures. Human colon (HCT‐15), pancreatic (PSN‐1) and breast (MCF‐7) carcinoma cell lines along with human melanoma cells (A375) were obtained from American Type Culture Collection (ATCC, Rockville, MD). Embryonic kidney HEK293 cells were obtained from the European Collection of Cell Cultures (ECACC, Salisbury, UK). Human ovarian 2008 cancer cells were kindly provided by Prof. G. Marverti (Dept. of Biomedical Science of Modena University, Italy). MCF‐7 ADR cells were kindly provided by Prof. N. Colabufo (Dept. Pharmacy, University of Bari, Italy). Cell lines were maintained in the logarithmic phase at 37 °C in a 5 % CO2 atmosphere using the following culture media containing 10 % fetal calf serum (Euroclone, Milan, Italy), antibiotics (50 units/mL penicillin and 50 μg/mL streptomycin) and 2 mM L‐glutamine: i) RPMI‐1640 medium (Euroclone, Milan, Italy) for PSN‐1, 2008, HCT‐15, MCF‐7 and MCF‐7 ADR cells; ii) DMEM for A375 and HEK293 cells.
MTT assay. The growth inhibitory effect towards tumour cells was evaluated by means of MTT assay as previously described.[57] Briefly, 3–8×10^3 cells/well, dependent upon the growth characteristics of the cell line, were seeded in 96‐well microplates in growth medium (100 μL). After 24 h, the medium was removed and replaced with a fresh one containing the compound to be studied at the appropriate concentration. Triplicate cultures were established for each treatment. After 24 or 72 h, each well was treated with 10 μL of a 5 mg/mL MTT saline solution, and following 5 h of incubation, 100 μL of a sodium dodecyl sulfate (SDS) solution in HCl 0.01 M were added. After an overnight incubation, cell growth inhibition was detected by measuring the absorbance of each well at 570 nm using a Bio‐Rad 680 microplate reader. Mean absorbance for each drug dose was expressed as a percentage of the control untreated well absorbance and plotted against drug concentration. IC50 values, the drug concentrations that reduce the mean absorbance at 570 nm to 50 % of those in the untreated control wells, were calculated by the four‐parameter logistic (4‐PL) model. Evaluation was based on means from at least four independent experiments.
(Tetrazolium assays rely on reduction of a dye to a coloured formazan, in cell work by metabolically active cells.)

Data set [3] relates to 3D cell spheroids of human pancreatic (PSN‐1) cancer cells. In words: Acid phosphatase (APH) assay, 3D spheroid culture. Format: cell-based. Particulars: PSN‐1 spheroids, 72 h, APH test. From the text:
(§1) The remarkable cell‐killing effect observed in 2D cultured cells prompted us to evaluate the in vitro antitumor activity of the complexes on 3D cell cultures. Differently from 2D monolayer culture, 3D spheroid cell culture systems comprise cancer cells in various cell growth stages. Consequently, the multicellular cancer spheroid model is recognized to better reflect the tumour mass in vivo regarding drug permeation, cell interactions, gene expression, hypoxia and nutrient gradients with respect to monolayer cell cultures, making 3D models more predictive than conventional 2D monolayer cultures in screening antitumor drugs.[38] Table 6 summarizes the IC50 values obtained after treatment of 3D cell spheroids of human ovarian (2008) and pancreatic (PSN‐1) cancer cells with the diiron complexes and cisplatin.
(§2) Spheroid cultures. Spheroid cultures were obtained by seeding 2.5×10^3 cells/well in round bottom non‐tissue culture treated 96 well‐plate (Greiner Bio‐one, Kremsmünster, Austria) in phenol red free RPMI‐1640 medium (Sigma Chemical Co.), containing 10 % FCS and supplemented with 20 % methyl cellulose stock solution.
(§3) Acid phosphatase (APH) assay. An APH modified assay was used for determining cell viability in 3D spheroids, as previously described.[58] IC50 values were calculated with a four‐parameter logistic (4‐PL) model. All the values are the means ± SD of not less than four independent experiments.

In data set [4] the test system is 3D cell spheroids of human ovarian (2008) cancer cells. In words: Acid phosphatase (APH) assay, 3D spheroid culture. Format: cell-based. The note with it: 2008 spheroids, 72 h, APH test.
Source text: as §1, §2, §3

Some results are limits rather than exact numbers.

With “[Fe2Cp2(CO)2(μ‐CO){μ‐CNEt(2‐naphthyl)}]BF4 [[4G]BF4]”, in data set [1], the “Solubility in water (qualitative)” value is given as “insoluble”. Also, the values for the IC50 in data set [2], in data set [3] and in data set [4] were 89.5 ± 4.5 µM, 77.4 ± 8.4 µM and 58.9 ± 4.8 µM, respectively. The “SI (selectivity index)” value in data set [2] came to 3.3.

In the case of “[Fe2Cp2(CO)2(μ‐CO){μ‐CNMe(1H‐indol‐6‐yl)}]CF3SO3 [[2A]CF3SO3]”, the “Solubility in water (qualitative)” value in data set [1] is “insoluble”. Further, the results for the IC50 in data set [2], in data set [3] and in data set [4] were 136 ± 6.4 µM, more than 100 µM and more than 100 µM, respectively. The “SI (selectivity index)” value in data set [2] was 2.3.

Consider “[Fe2Cp2(CO)2(μ‐CO){μ‐CNMe(CH2CHCH2)}]X [[3F]CF3SO3]”, for which the “Solubility in water (qualitative)” value in data set [1] is on record as “soluble”. For the same substance, the IC50 in data set [2], in data set [3] and in data set [4] was more than 100 µM each time. In addition, the “IC50±SD (μM)” value in data set [3] and in data set [4] was “ineffective” throughout.

Take “[Fe2Cp2(CO)2(μ‐CO){μ‐CNMe(4‐C6H4OMe)}]CF3SO3 [[2D]CF3SO3]”: the “Solubility in water (qualitative)” value in data set [1] is “soluble”. Moreover, the IC50 in data set [2] was determined as 94.3 ± 6.1 µM; in data set [3], 53.7 ± 6.1 µM; in data set [4] it was 42.8 ± 4.2 µM. Moreover, in data set [2], the “SI (selectivity index)” value came out at 5.6.

On to “[Fe2Cp2(CO)2(μ‐CO){μ‐CNMe(CH2PO3Et2)}]X [[2B]BF4]”, for which the “Solubility in water (qualitative)” value in data set [1] is given as “soluble”. The IC50 in data set [2], in data set [3] and in data set [4] was more than 100 µM throughout.

“[Fe2Cp2(CO)2(μ‐CO){μ‐CNMe(C6H11)}]X [[2C]CF3SO3]”: in data set [1], the “Solubility in water (qualitative)” value is “less soluble”. Further, the IC50 amounted to 62.5 ± 4.9 µM in data set [2], 78.2 ± 9.1 µM in data set [3] and 66.4 ± 8.6 µM in data set [4]. For the same substance, the “SI (selectivity index)” value in data set [2] is 3.6.

As for “[Fe2Cp2(CO)2(μ‐CO){μ‐CNBn2}]X [[5H]CF3SO3]”, the “Solubility in water (qualitative)” value in data set [1] is “poorly soluble”. For the same substance, the IC50 came to 98.3 ± 4.2 µM in data set [2], 86.2 ± 6.4 µM in data set [3] and 73.2 ± 6.2 µM in data set [4]. Moreover, the “SI (selectivity index)” value in data set [2] was 2.8.

As usually defined, the IC50 is the midpoint of a concentration-inhibition curve. A lower IC50 goes with greater potency.
